Measured values reported in patent publication US12522590B2, “Brefeldin a derivatives, preparation method and use thereof” (OCEAN UNIVERSITY OF CHINA, priority 2019, dated 2026).
In brackets after ≈: the same amount, converted by molar mass. Like-named read-outs stand apart in the source and are kept apart here.

How the values were obtained:
[1] = system: Human cervical cancer cells Hela; assay: Cell proliferation assay (CCK-8); type: cell-based; conditions: Homo sapiens, 72 h
Excerpt: (§1) CCK-8 method: The CCK-8 method is a highly sensitive, non-radioactive colorimetric assay for the determination of the number of viable cells in cell proliferation or cytotoxicity assays. The orange formazan dye produced by the bioreduction of CCK-8 by intracellular dehydrogenase is soluble in the cell culture medium, and the amount of formazan dye produced is proportional to the number of living cells. The kit used in this method is the tetrazolium salt-WST-8 (2-(2-methoxy-4-nitrophenyl)-3-(4-nitrophenyl)-5-(2,4-disulfophenyl)-2H-tetrazolium monosodium salt) developed by Dojindo Chemical Research Institute (Dojindo), which is capable of being reduced to a water-soluble formazan dye in the presence of the electronic carrier 1-Methoxy PMS.
(§2) Human cervical cancer cells Hela, pancreatic cancer cells PANC-1, esophageal cancer cells Eca-109, human leukemia cells K562, human lung cancer cells A549, human liver cancer cells HepG2, human gastric cancer cells MKN-45, human breast cancer cells MCF7 were cultured in DMEM medium containing 10% FBS (fetal bovine serum), 100 U/mL penicillin and 100 μg/ml streptomycin. Hepatocellular carcinoma cells Bel-7402 were cultured in RPMI-1640 medium containing 10% FBS (fetal bovine serum), 100 U/ml penicillin and 100 μg/ml streptomycin. All cells were placed in a cell culture incubator at 37° C. with 5% CO2. Cells fluid was changed every 3-5 days, and after 80% cell fusion, trypsin digestion and passaging were performed to keep the cells in good logarithmic growth phase.
(§3) All the samples to be tested were dissolved in DMSO.
(§4) Cells in logarithmic growth phase were inoculated in 96-well plates with 5000 cells/well respectively, and after 24 h of incubation, samples were added (final concentrations as shown in the table), and biplicate wells were set up for each sample. The amount of solvent of DMSO was not higher than 2‰. After 72 h, 10 μL of CCK-8 solution was added to each well and incubated for 1.5˜3 h at 37° C. The OD value at 450 nm was measured on an plate reader. Inhibition rate (%)=(1−[(OD450 dosed well−OD450 blank well)/(OD450 control well−OD450 blank well)])×100%
(§5) The fitted IC50 values were calculated using the log (inhibitor) vs. response—Variable slop analysis method in GraphPad Prism software.

[2] = system: human liver cancer cells HepG2; assay: Cell proliferation assay (CCK-8); type: cell-based; conditions: Homo sapiens, HepG2, 72 h
Excerpt: as §1, §2, §3, §4, §5

[3] = system: human breast cancer cells MCF7; assay: Cell proliferation assay (CCK-8); type: cell-based; conditions: Homo sapiens, MCF7, 72 h
Excerpt: as §1, §2, §3, §4, §5

[4] = system: human leukemia cells K562; assay: Cell proliferation assay (CCK-8); type: cell-based; conditions: Homo sapiens, K562, 72 h
Excerpt: as §1, §2, §3, §4, §5

[5] = system: human gastric cancer cells MKN-45; assay: Cell proliferation assay (CCK-8); type: cell-based; conditions: Homo sapiens, MKN-45, 72 h
Excerpt: as §1, §2, §3, §4, §5

[6] = system: human lung cancer cells A549; assay: Cell proliferation assay (CCK-8); type: cell-based; conditions: Homo sapiens, A549, 72 h
Excerpt: as §1, §2, §3, §4, §5

[7] = system: pancreatic cancer cells PANC-1; assay: Cell proliferation assay (CCK-8); type: cell-based, human; conditions: Homo sapiens, PANC-1, 72 h
Excerpt: as §1, §2, §3, §4, §5

[8] = system: esophageal cancer cells Eca-109; assay: Cell proliferation assay (CCK-8); type: cell-based, human; conditions: Homo sapiens, Eca-109, 72 h
Excerpt: as §1, §2, §3, §4, §5

[9] = Solubility test (shake 37° C., 24 h, HPLC); type: physicochemical; conditions: thermodynamic from solid, x ± s
Procedure: The term “solubility” refers to the mass of solute dissolved when a solid substance reaches saturation state in 100 g solvent at a certain temperature. Solubility test refer to the following references: ZHU Shang-bin, et al. Preparation, characterization, and physicochemical properties of arbutin phospholipid complex[J]. Chinese Traditional and Herbal Drugs. 2020, 1-10.
Methods: Excess BFA and the compounds disclosed herein were added to 10 mL of three solvents, methanol, acetone and 5% DMSO+95% H2O, respectively, and shaken on a shaker at 37° C. at 100 r/min for 24 h. After 24 h, the samples were centrifuged at 15 000 r/min for 15 min to remove the undissolved compounds. The supernatant was filtered using a 0.45 μm membrane filter. The supernatant was appropriately diluted with methanol and contents of the compounds were determined by HPLC method to calculate the solubility.

[10] = Pharmacokinetic evaluation (plasma BFA by LC/MS/MS); type: in vivo, SD rats; conditions: rat, in vivo, 40 mg/kg
Procedure: SD rats were weighed after an overnight fasting of 15 hours and randomly grouped according to weights. The appropriate amount of the compound was accurately weighed, and a final volume of 5% DMSO, 10% Solutol, and 85% Saline was added and vortexed or sonicated to make a thorough mixing to provide a 4 mg/mL solution for intravenous administration (iv.). Venous blood was taken at the time points of 0, 0.083 (iv. group only), 0.25, 0.5, 1.0, 2.0, 5.0, 7.0 and 24 h, via jugular vein or other suitable means, with approximately 0.20 mL of each sample collected, anticoagulated with sodium heparin (with 6.25 μL of 200 mM DDVP/tube added), and placed on ice after collection. The plasma was separated by centrifugation within 2 hours (centrifugal force 6800 g, 6 min, 2-8° C.). The collected plasma samples were stored in a −70° C. refrigerator before analysis, and the remaining plasma samples after analysis were kept stored at −20° C. or −70° C. until LC/MS/MS analysis was performed. The accuracy of QC samples was evaluated while analyzing the samples, and more than 66% of the QC samples were required to have an accuracy between 80-120%. When plasma drug concentration-time curves were plotted, BLQ were recorded as 0. For the calculation of pharmacokinetic parameters, the concentration before dosing was counted as 0; BLQ before Cmax (including “No peak”) was counted as 0; BLQ after Cmax (including “No peak”) was not included in the calculation. Pharmacokinetic parameters such as AUC(0-t), T1/2, Cmax, Tmax and MRT were calculated according to the blood concentration data of BFA at different time points using WinNonlin.

[11] = aqueous with cosolvent or surfactant or cyclodextrin, 5% DMSO + 95% H2O, n = 3, read-out: Solubility, 5% DMSO + 95% H2O
[12] = organic solvent or mixture, acetone, n = 3, read-out: Solubility, Acetone
[13] = organic solvent or mixture, methanol, n = 3, read-out: Solubility, Methanol

Row | Structure (SMILES) | IC50 [1] | IC50 [2] | IC50 [3] | IC50 [4] | IC50 [5] | IC50 [6] | IC50 [7] | IC50 [8] | solubility at 24 h [9, 11] | solubility at 24 h [9, 12] | solubility at 24 h [9, 13] | Blood concentrations detected within 1 h [10] | Drug in blood after 1 h [10]
1 | C[C@H]1CCC/C=C/[C@@H]2C[C@H](OC(=O)OCCc3cccnc3)C[C@H]2[C@H](O)/C=C/C(=O)O1 [Compound 9, BFA-7-(pyridine-3-ylethyl)carbonate] | < 100 nM | 100 to 1000 nM | 100 to 1000 nM | 100 to 1000 nM | 100 to 1000 nM | < 100 nM | 100 to 1000 nM | 100 to 1000 nM | 2700 ± 770 µg/mL | 68800 ± 2530 µg/mL (≈ 160 mM) | 69000 ± 1810 µg/mL (≈ 161 mM) |  | 
2 | C[C@H]1CCC/C=C/[C@@H]2C[C@H](OC(=O)OCCCc3cccnc3)C[C@H]2[C@H](O)/C=C/C(=O)O1 [Compound 10] | 100 to 1000 nM | 100 to 1000 nM | 100 to 1000 nM | 100 to 1000 nM | 100 to 1000 nM | 100 to 1000 nM | 100 to 1000 nM | < 100 nM |  |  |  |  | 
3 | C[C@H]1CCC/C=C/[C@@H]2C[C@H](OC(=O)OCc3cncc4ccccc34)C[C@H]2[C@H](O)/C=C/C(=O)O1 [Compound 12] | 100 to 1000 nM | < 100 nM | 100 to 1000 nM | 100 to 1000 nM | 100 to 1000 nM | 100 to 1000 nM | 100 to 1000 nM | 100 to 1000 nM |  |  |  |  | 
4 | C[C@H]1CCC/C=C/[C@@H]2C[C@H](OC(=O)OCCc3ccccc3)C[C@H]2[C@H](O)/C=C/C(=O)O1 [Compound A, reference compound] | 1000 to 10000 nM | 100 to 1000 nM | 1000 to 10000 nM | 100 to 1000 nM | 1000 to 10000 nM | 100 to 1000 nM | 1000 to 10000 nM | 100 to 1000 nM | 250 ± 130 µg/mL | 9360 ± 1260 µg/mL (≈ 21.8 mM) | 9930 ± 1210 µg/mL (≈ 23.2 mM) |  | 
5 | C[C@H]1CCC/C=C/[C@@H]2C[C@H](OC(=O)OCc3cccc(F)c3)C[C@H]2[C@H](O)/C=C/C(=O)O1 [Compound B, reference compound] | 1000 to 10000 nM | 100 to 1000 nM | 100 to 1000 nM | 1000 to 10000 nM | 1000 to 10000 nM | 1000 to 10000 nM | 100 to 1000 nM | 100 to 1000 nM | 260 ± 160 µg/mL | 9550 ± 1230 µg/mL (≈ 22.1 mM) | 9760 ± 1210 µg/mL (≈ 22.6 mM) |  | 
6 | COC(=O)O[C@@H]1C[C@H]2[C@H](O)/C=C/C(=O)O[C@@H](C)CCC/C=C/[C@@H]2C1 [Compound C, reference compound] | 1000 to 10000 nM | 100 to 1000 nM | 100 to 1000 nM | 100 to 1000 nM | 1000 to 10000 nM | 100 to 1000 nM | 100 to 1000 nM | 1000 to 10000 nM | 250 ± 230 µg/mL | 9260 ± 1130 µg/mL (≈ 27.4 mM) | 9440 ± 1510 µg/mL (≈ 27.9 mM) |  | 
7 | C[C@H]1CCC/C=C/[C@@H]2C[C@H](OC(=O)OCc3cccnc3)C[C@H]2[C@H](OC(=O)OCc2cccnc2)/C=C/C(=O)O1 [Compound D, reference compound] | 1000 to 10000 nM | 1000 to 10000 nM | 100 to 1000 nM | 100 to 1000 nM | 1000 to 10000 nM | 100 to 1000 nM | 1000 to 10000 nM | 1000 to 10000 nM | 510 ± 130 µg/mL | 21200 ± 1120 µg/mL (≈ 38.4 mM) | 20400 ± 1410 µg/mL (≈ 37.1 mM) | low blood concentrations | basically undetectable
